Results: PubChem BioAssay (NCI)
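Where inhibition never reached the appropriate level, the endpoint shown equals the highest concentration tested. Otherwise, values were interpolated linearly from a five-concentration, 48-hour dose response in 96-well plates. At the GI50, growth is halved. TGI: concentration producing complete growth inhibition.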

What was measured:
Test in all cases: NCI anticancer screen, dose series, 48 h
[1] = test system: A498 renal
[2] = test system: CCRF-CEM leukemia
[3] = test system: HCT-15 colon
[4] = test system: HOP-62 NSCLC
[5] = test system: OVCAR-5 ovarian
[6] = test system: RPMI-8226 leukemia
[7] = test system: SK-MEL-2 melanoma
[8] = test system: SNB-19 CNS
[9] = test system: SNB-75 CNS
[10] = test system: ACHN renal
[11] = test system: TK-10 renal

## O=C1C=C(C2OC(CO)C(O)C2O)C(=O)N1 (stereo unspecified)
[1]
  TGI: > 100 µM
[2]
  TGI: > 89.5 µM
[3]
  TGI: > 100 µM
[4]
  TGI: > 100 µM
[5]
  TGI: > 100 µM
[6]
  TGI: > 87.8 µM
[7]
  TGI: > 100 µM
[8]
  TGI: > 100 µM
[9]
  TGI: > 100 µM

## CCCC(C)c1ccc(OCCCCCCN2CCNCC2)cc1 (stereo unspecified)
[1]
  GI50: 2.43 µM
  TGI: 9.33 µM
[10]
  GI50: 2.23 µM
  TGI: 5.32 µM
[2]
  GI50: 2.44 µM
  TGI: 7.46 µM
[3]
  GI50: 1.88 µM
  TGI: 3.77 µM
[4]
  GI50: 4.55 µM
  TGI: 24.1 µM
[5]
  GI50: 2.73 µM
  TGI: 7.9 µM
[8]
  GI50: 3.2 µM
  TGI: 13.6 µM
[9]
  GI50: 1.41 µM
  TGI: 3.06 µM
[11]
  GI50: 1.8 µM
  TGI: 3.47 µM

## N#C[S-].[La+3].c1cnc2c(c1)ccc1cccnc12.c1cnc2c(c1)ccc1cccnc12.c1cnc2c(c1)ccc1cccnc12
[1]
  TGI: 13.5 µM
[10]
  TGI: 12.9 µM
[2]
  TGI: 2.58 µM
[5]
  TGI: 12.4 µM
[6]
  TGI: > 100 µM
[8]
  TGI: 20.9 µM
[9]
  TGI: 29 µM
[11]
  TGI: 25.4 µM

## OC(CC1CCCCN1)c1ccc2c(c1)oc1ccccc12 (stereo unspecified)
[1]
  TGI: 64.7 µM
[10]
  TGI: > 100 µM
[2]
  TGI: > 100 µM
[3]
  TGI: > 100 µM
[4]
  TGI: > 100 µM
[5]
  TGI: > 100 µM
[6]
  TGI: > 100 µM
[7]
  TGI: > 100 µM
[8]
  TGI: > 100 µM
[9]
  TGI: > 100 µM
[11]
  TGI: > 100 µM

## CC1(C)[C@@H]2CC[C@]1(C)[C@H](OC(=O)CSC#N)C2
[1]
  TGI: > 100 µM
[10]
  TGI: > 100 µM
[3]
  TGI: > 100 µM
[4]
  TGI: > 100 µM
[5]
  TGI: > 100 µM
[7]
  TGI: > 100 µM
[8]
  TGI: > 100 µM
[9]
  TGI: > 100 µM
[11]
  TGI: > 100 µM

## COc1cc2c(cc1O)c(O)cc1c3cc(OC)c(OC)cc3c[n+](C)c21
[1]
  TGI: > 100 µM
[10]
  TGI: > 100 µM
[2]
  TGI: > 100 µM
[3]
  TGI: > 100 µM
[4]
  TGI: > 100 µM
[5]
  TGI: > 100 µM
[6]
  TGI: > 100 µM
[7]
  TGI: > 100 µM
[8]
  TGI: > 100 µM
[9]
  TGI: > 100 µM
[11]
  TGI: > 100 µM

## Cc1ccc2c(ccc(/C=C/c3ccc(O)c4ncccc34)[n+]2C)c1
[1]
  TGI: 26.5 µM
[10]
  TGI: 33.1 µM
[2]
  TGI: > 70 µM
[3]
  TGI: > 100 µM
[4]
  TGI: 32.9 µM
[5]
  TGI: 53.3 µM
[6]
  TGI: 70.2 µM
[7]
  TGI: 36.3 µM
[8]
  TGI: 36.9 µM
[9]
  TGI: 43.7 µM
[11]
  TGI: 38.9 µM

## O=C(c1ccccc1)c1ccc2n[se]nc2c1
[1]
  TGI: > 100 µM
[10]
  TGI: > 100 µM
[2]
  TGI: > 100 µM
[3]
  TGI: > 100 µM
[5]
  TGI: > 100 µM
[6]
  TGI: > 100 µM
[7]
  TGI: > 100 µM
[8]
  TGI: > 100 µM
[9]
  TGI: > 100 µM
[11]
  TGI: > 100 µM

## CN(C)/C=C/C(=CC=[N+](C)C)/C=C/N(C)C
[1]
  TGI: > 100 µM
[10]
  TGI: > 100 µM
[2]
  TGI: > 100 µM
[4]
  TGI: > 100 µM
[5]
  TGI: > 100 µM
[6]
  TGI: > 100 µM
[7]
  TGI: > 100 µM
[8]
  TGI: > 100 µM
[11]
  TGI: > 100 µM

## CCC1C[N+]23CCc4c([nH]c5ccccc45)C2CC1CC3 (stereo unspecified)
[10]
  TGI: > 100 µM
[2]
  TGI: > 100 µM
[3]
  TGI: > 100 µM
[4]
  TGI: > 100 µM
[5]
  TGI: > 100 µM
[6]
  TGI: > 100 µM
[7]
  TGI: > 100 µM
[9]
  TGI: > 100 µM
[11]
  TGI: > 100 µM

## CN(C)CCNC(=O)c1cccc2c(=O)c3ccccc3oc12
[1]
  TGI: 52.8 µM
[2]
  TGI: > 100 µM
[3]
  TGI: > 100 µM
[4]
  TGI: 97.5 µM
[5]
  TGI: > 82.9 µM
[6]
  TGI: > 87.1 µM
[7]
  TGI: 98.9 µM
[8]
  TGI: 97.7 µM
[9]
  TGI: > 87.3 µM

## CCOP(=Nc1ccc(N(C)C)cc1)(OCC)OCC
[1]
  TGI: > 100 µM
[10]
  TGI: > 100 µM
[3]
  TGI: > 100 µM
[4]
  TGI: > 100 µM
[5]
  TGI: > 100 µM
[6]
  TGI: > 100 µM
[7]
  TGI: > 100 µM
[8]
  TGI: > 100 µM
[9]
  TGI: > 100 µM
[11]
  TGI: > 100 µM

## OC(CNc1ccccn1)c1ccccc1 (stereo unspecified)
[1]
  TGI: > 100 µM
[10]
  TGI: > 100 µM
[2]
  TGI: > 100 µM
[3]
  TGI: > 100 µM
[4]
  TGI: > 100 µM
[5]
  TGI: > 100 µM
[6]
  TGI: > 100 µM
[7]
  TGI: > 100 µM
[8]
  TGI: > 100 µM
[9]
  TGI: > 100 µM
[11]
  TGI: > 100 µM

## Cc1ccc(S(=O)(=O)Nc2cccc3c(=O)[nH]cnc23)cc1
[1]
  TGI: > 100 µM
[10]
  TGI: > 100 µM
[2]
  TGI: > 100 µM
[3]
  TGI: > 100 µM
[4]
  TGI: > 100 µM
[5]
  TGI: > 100 µM
[6]
  TGI: 97.7 µM
[7]
  TGI: > 100 µM
[8]
  TGI: > 100 µM
[9]
  TGI: > 100 µM
[11]
  TGI: > 100 µM

## CC(=O)C(C(c1ccccc1)N1CCOCC1)N1CCOCC1 (stereo unspecified)
[1]
  TGI: > 100 µM
[10]
  TGI: > 100 µM
[2]
  TGI: > 100 µM
[3]
  TGI: > 100 µM
[4]
  TGI: > 100 µM
[5]
  TGI: > 100 µM
[6]
  TGI: > 100 µM
[7]
  TGI: > 100 µM
[8]
  TGI: > 100 µM
[9]
  TGI: > 100 µM
[11]
  TGI: 53.7 µM

## CC1=C2C(O)C(C(C)C(=O)N(C)C)CCC2(C)C=CC1=O (stereo unspecified)
[1]
  TGI: > 100 µM
[2]
  TGI: > 100 µM
[3]
  TGI: > 100 µM
[4]
  TGI: > 100 µM
[5]
  TGI: > 100 µM
[6]
  TGI: > 100 µM
[7]
  TGI: > 100 µM
[8]
  TGI: > 100 µM
[9]
  TGI: > 100 µM
